Calls of active or inactive are those of the source. The rule behind the calls is not given here.

These results are taken from ChEMBL document CHEMBL1129326, “Inhibition of DNA topoisomerase II by azaelliptitoxins functionalized in the variable substituent domain” (J Med Chem, 1996).

For the assay, the target named is DNA topoisomerase II (Homo sapiens) (UniProt P11388+Q02880). In words: Inhibitory activity against human DNA Topoisomerase-2, activity is expressed as relative DNA cleavage compared to Azatoxin by densitometric analysis; inactive. Type of assay: protein assay.
Consider `COc1cc([C@@H]2c3[nH]c4ccccc4c3[C@@H](OC)[C@H]3COC(=O)N23)cc(OC)c1O`, for which the outcome was inactive.
With `COc1cc([C@@H]2c3[nH]c4ccccc4c3[C@@H](Nc3cc(OC)c(OC)c(OC)c3)[C@H]3COC(=O)N23)cc(OC)c1O` the entry was “inactive”; with `COc1cc(N[C@@H]2c3c([nH]c4ccccc34)[C@@H](c3cc(OC)c(O)c(OC)c3)N3C(=O)OC[C@H]23)ccc1O`, “inactive”.
